Here are results for one substance from patent US20130158024A1, “TRICYCLIC NECROSTATIN COMPOUNDS” (priority 2005, published 2013).

One may read the EC50 as the midpoint of the concentration-response curve.

“Also recorded” adds a separate entry of the source. Like-named read-outs stand apart in the source and are kept apart here.

For one data set, the system named is U937 cells. Briefly: Oxidative stress (menadione) induced death of U937 cells, ATP assay. The conditions noted are these: 250 μM menadione, 24 hours. The class given is cell-based, human. As for the experimental part:
Viability of TNFα/zVAD/DMSO or manadione/DMSO blank treated cells is also shown (- - -). Viability was determined using ATP-Lite-M assay (Packard). Numbers represent percentages of live cells. The values were normalized relative to the zVAD or DMSO treated controls, which were set as 100% viability.
In this and subsequent panels, cell viability was determined via ATP assay. Numbers represent viability normalized to that of the DMSO-treated cells in the absence of TNFα and menadione. Throughout, error bars represent standard deviations. […] Representative images are shown. […] Protein lysates were subjected to western blotting with antibodies to LC3 and to tubulin. The ratio of LC3-II to tubulin signals was calculated (“Ratio”) and normalized to the value in the control sample. […] Alternatively, cells were treated with 2 μM rapamycin. […] Numbers represent viability normalized to that of the compound-treated cells in the absence of TNFα. In FIG. 28H, expression of beclin-1 (“Bec”) and tubulin (“Tub”) in the stable populations of cells in FIG. 28G was analyzed by western blotting.

Data set [1] has as its system Jurkat cells expressing dimerizable FADD. The following applies: dimerizer and zVAD.fmk, 48 hours.
Another data set has as its system Jurkat T cells. Put plainly: Necrosis (CICD) of Jurkat T cells induced by Fas ligand, cycloheximide and zVAD, ATP assay. The class given is cell-based, human. The following applies: FasL/CHX/zVAD. The gist of the method:
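Jurkat cells given FasL (5 ng/ml), cycloheximide (1 μg/ml) and zVAD.fmk (100 μM) to drive CICD, with compounds at the indicated amounts. Viability read as ATP by CellTiter-Glo after 36 h, relative to untreated cells without FasL (100%).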

The subject of another data set is primary cortical neurons. Briefly: Oxygen-glucose deprivation (OGD) induced death of primary cortical neurons, MAP2 cytoblot. The class given is cell-based. The conditions noted are these: OGD 90 minutes, 24 hours recovery; 30 μM. As for the experimental part:
Cells were allowed to recover in the presence of the compounds (except for the CNQX/MK801) for 24 hours, and specific neuronal viability was determined using MAP2 cytoblot. Values represent the percentages of live cells normalized to the compound treated cells, which were maintained in glucose-containing, non-deoxygenated media. **—P<0.02. […] Cells were allowed to recover in the presence of the compounds for 24 hours, and specific neuronal viability was determined using MAP2 cytoblot. Values represent the percentages of live cells normalized to the compound treated cells, which were maintained in glucose-containing, non-deoxygenated media. **—P<0.04.

Data set [2] concerns FADD-deficient Jurkat T cells treated with TNF-α. Briefly: Inhibition of necroptosis (CICD) in FADD-deficient Jurkat T cells treated with TNF-α, ATP-based viability. The format is cell-based, human.
For a further data set, the system named is L929 cells. Briefly: TNFα-induced CICD of L929 cells, ATP assay. The conditions noted are these: no caspase inhibitor. The class given is cell-based, mouse. As for the experimental part:
Cell viability was determined using ATP-Lite-M ATP assay (Packard). The values represent viability relative to the control lacking TNFα, which was set as 100% viability.
Cell viability in this and subsequent panels was determined by ATP-based viability assay. Numbers represent percentages of the live cells normalized to those in the untreated control wells. Throughout, error bars represent standard deviations. […] Numbers represent viability normalized to that of the corresponding compound-treated cells in the absence of FasL. […] Numbers represent viability normalized to that of the corresponding compound-treated cells in the absence of dimerizer. […] Cells were treated with TNFα (E, F, H), zVAD.fmk (E, F), or CHX (F) for 16 (F) or 24 (E, H) hours. Numbers represent viability normalized to that of the compound-treated cells in the absence of TNFα.

For a further data set, the system named is healthy cells. Briefly: Effect of compound alone on physiology of healthy cells (ATP, morphology, cell cycle, mRNA, ROS). The format is cell-based. As for the experimental part: Results of the forward and side scatter FACS analysis are shown. In addition, percentage of PI negative viable cells (±SD value) was determined in each sample. […] Numbers of PI negative viable cells (±SD value) in each sample are shown. […] FADD-deficient Jurkat cells were treated as described in FIG. 31A and cell cycle profiles were analyzed by PI DNA content FACS analysis. […] Cell viability was determined using ATP assay. Numbers represent viability normalized to that of the corresponding DMSO-treated cells. Error bars indicate standard deviation values. […] Cells were fixed, embedded and analyzed using electron microscopy. Representative images are shown. […] Cells were stained with dyhydroethydium (Molecular Probes) and analyzed by FACS. Percentages (±SD value) of cells with increased ROS levels are shown. […] Red dots are internal reference controls.
Cells were fixed and stained with anti-giantin (Golgi, green)/anti-KDEL (ER, red) antibodies (FIG. 32A), anti-β-tubulin (tubulin, green)/TO-PRO-3 dye (nuclei, blue)/phalloidin-TRITC (actin, red) (FIG. 32B) and anti-cytochrome c (mitochondria, red)/TO-PRO-3 (nuclei, blue) (FIG. 32C). […]
After the appropriate treatment, we washed Jurkat cells once, resuspended them in PBS, and fixed the cells by adding four volumes of ice cold 100% ethanol. […] We analyzed the data using ModFit software (Verity Software House).

In a further data set the test system is Rat hippocampal neurons. Put plainly: Amyloid-beta toxicity in rat hippocampal neurons, ATP assay. The class given is cell-based. The following applies: Aβ25-35, 48 or 72 hours. As for the experimental part:
Viability was determined using an ATP assay. Similar results were also obtained using Aβ1-42.

As to methylthiohydantoin-tryptophane [Nec-1], the “protection from menadione induced cell death, in words” value in the data set with U937 cells is “did not block the “classic” oxidative stress-induced necrosis caused by menadione”. In addition, the “inhibition of necrotic death, in words” value in data set [1] was “inhibited all published examples of necrotic cell death induced by DR activation in the presence of caspase inhibitors”. Besides, the “inhibition of CICD/necrosis of Jurkat cells, in words” value in the data set with Jurkat T cells is given as “protected against CICD induced by FasL/CHX/zVAD; also recorded: efficiently inhibited by Nec-1; also recorded: inhibited all published examples of necrotic cell death induced by DR activation in the presence of caspase inhibitors”. Besides, in the data set on primary cortical neurons, the “protection from OGD-induced neuronal death, in words” value is “protects primary cortical neurons from oxygen-glucose deprivation induced cell death; also recorded: attenuated OGD-induced death of cortical neurons”. The concentration for a half-maximal effect (EC50) was 0.05 µM in data set [2] (10 ng/mL human TNF-α, 24 hours, ATP-based viability, EC50 ± SD from at least two independent experiments, read-out: EC50 (μM) for inhibition of necroptosis); 0.494 µM in data set [2] (Jurkat FADD deficient cells treated with TNFα, read-out: EC50); 0.494 µM in data set [2] (concentration required to rescue 50% of cell death, TNFα for 36 hours, ATP assay, read-out: EC50). The “antinecroptotic (anti-CICD) activity, in words” value in data set [2] (FADD-deficient Jurkat cells, TNFα) is on record as “allowed proliferation of TNFα-treated FADD-deficient cells at a rate indistinguishable from untreated cells; also recorded: prevented the death of TNFα-treated FADD-deficient Jurkat cells”. For the same substance, in the data set on L929 cells, the “protection of L929 cells from TNFα-induced CICD, in words” value is on record as “protects L929 cells from CICD; also recorded: unlike Nec-1; also recorded: efficiently inhibited the TNFα-induced necrotic death of L929 cells”. In addition, the “general effect in healthy cells, in words” value in the data set with healthy cells is given as “does not significantly affect gene expression in Jurkat cells; also recorded: had no general effect in healthy cells”. In addition, the “attenuation of amyloid-beta toxicity in hippocampal neurons, in words” value in the data set with Rat hippocampal neurons was “protection by Nec-1 from amyloid-beta toxicity; also recorded: attenuation of the aggregated amyloid-beta peptide (Aβ) toxicity in primary rat hippocampal neurons”.
